Measured values published in US8871741B2, “Inhibition of TNF-α induced activation of NFKB by pentosan polysulfate” (Icahn School of Medicine at Mount Sinai, priority 2010, dated 2014).

What was measured:
hepatic lipase = assay: Post-heparin hepatic lipase activity in WHHL rabbits; type: in vivo, rabbit; details: end of treatment period
Experimental: (§1) Blood was drawn from rabbits after a 12-hour fast into tubes containing EDTA at the beginning of the study, every two weeks during treatment with the atherogenic diet, and at the end of the study. The total cholesterol and triglyceride concentrations (Sigma) as well as unesterified cholesterol and phospholipids (Wako Chemicals, Richmond, Va.) were determined on plasma samples using enzymatic methods on a Hitachi 911 Autoanalyzer (Boehringer Mannheim). Post-heparin hepatic lipase activity was determined as described (Iverius P H, Brunzell J D. Am J Physiol 1985; 249: E107-E114).

MCP-1 and RANTES = assay: TNFα stimulated MCP-1 and RANTES production by proximal tubular cells, ELISA; type: cell-based, mouse; details: PPS 200 μg/ml pretreatment, TNFα 10 ng/ml, p<0.01 vs. TNFα alone
Experimental: A proximal tubular cell line obtained from mice transgenic for SV40 T antigen was grown in DMEM containing 10% FBS. For the measurement of TNFα-stimulated gene expression, 1×10^5 proximal tubular cells were transferred to each well of a 6-well-plate. After placing the cells in 0.1% FBS medium for 24 hours, 10 ng/ml of TNFα was added to test wells. Total RNA was isolated from all wells 4 hours later. MCP-1, RANTES, CXCL1, MIP-2, ICAM-1, and iNOS mRNA levels were determined by real-time PCR as described above and corrected by β-actin mRNA levels. TNFα stimulated MCP-1 and RANTES production and release into the medium was measured in TNFα (10 ng/ml) treated and control cells at 24 hours. The amount of MCP-1 or RANTES in the medium was measured by ELISA (Invitrogen Corporation (Carlsband, Calif.).
To determine the effect of PPS on TNFα induced upregulation of proinflammatory genes, proximal tubular cells were pre-treated with PPS (200 μg/ml) for 1 hour before the addition of TNFα (10 ng/ml). MCP-1, RANTES, CXCL1, MIP-2, ICAM-1, and iNOS mRNA levels were determined 4 hours later by real-time PCR. MCP-1 and RANTES production was also measured.

ERK1/2 = assay: TNFα stimulated ERK1/2 phosphorylation in proximal tubular cells, Western-blot; type: cell-based, mouse
Experimental: The activation of NF-κB and mitogen activated protein kinases including p38, JNK (Jun N-terminal kinase), and ERK (extracellular signal regulated kinase) pathways play an essential role in proinflammatory actions of TNFα. Thus, it was examined whether PPS affected the phosphorylation of IκB, ERK, p38, and JNK by TNFα. Proximal tubular cells were allowed to grow to 70% confluency in […] petri-dish. Cell lysates were collected before or 15, 30, 60, and 120 minutes after TNFα treatment (10 ng/ml). Cells in some dishes were pre-incubated with PPS (400 μg/ml) for ½ hour before exposure to TNFα. The levels of phosphorylated IκB, ERK, p38, and JNK were determined by Western-blots. Briefly, equal amounts of protein samples (10-20 μg/lane) were loaded onto SDS-PAGE gels. After electrophoresis, proteins were transferred to nitrocellulose membranes and blotted with antibody against phosphorylated IκB, ERK, p38, or JNK (Cell signaling, Boston, Mass.). After the first analysis, the membranes were stripped to re-probe with antibody against total IκB, ERK, p38 or JNK, and ERK and finally with antibody against β-actin (Cell signaling, Boston, Mass.).

[1] = Plasma lipid and lipoprotein analyses in WHHL rabbits; type: in vivo, rabbit; details: for Free cholesterol / Phospholipids / Total cholesterol / Triglycerides: mean ± SEM, 5 animals
Experimental: as §1

NF-κB [2] = assay: NF-κB DNA binding, gel mobility shift assay (EMSA); type: cell-based, mouse; details: proximal tubular cells, PPS 800 μg/ml for ½ hour before TNFα 10 ng/ml, nuclear protein after 1 hour
Experimental: Additionally, NF-κB DNA binding was examined by gel mobility shift assay (EMSA). Briefly, proximal tubular cells were pre-incubated with or without PPS (800 μg/ml) for ½ hour before the addition of TNFα (10 ng/ml). Nuclear protein was extracted from cells 1 hour after treatment. A NF-κB probe was prepared by annealing complementary single-stranded oligonucleotides with 5′-ACTG overhangs (MWG Biotechnologies, Inc.) and were labeled by filling in with [-^32P]dGTP and [-^32P]dCTP using Klenow enzyme. Labeled probes were purified with Nuctrap purification columns (Roche Applied Science). EMSAs were performed using 10^5 cpm of labeled probe and 10 μg of nuclear extracts/reaction. DNA binding complexes were separated by electrophoresis on a 5% polyacrylamide-Tris/glycine-EDTA gel, which was dried and exposed to X-ray film.

MMP-2 = assay: Zymography of aortic extracts; type: in vivo, rabbit; details: PPS-treated WHHL rabbits, 75 days HC-diet
Experimental: MMP activity in aortic extracts and conditioned media from monocytes was assessed, as previously described (Jacot T A, et al., Lab Invest. 1996; 75:791-79). Briefly, aortic segments were homogenized and extracted in RIPA buffer (25 mM Tris, pH 7.4, 150 mM KCl, 5 mM EDTA, 1% Nonidet P-40, 0.5% sodium deoxycholate, and 0.1% SDS). Insoluble material was precipitated by centrifugation, and soluble extracts were collected and stored at −20° C. for further analysis. For in vitro experiments, cell supernatants were centrifuged to remove cellular debris, and diluted appropriately to normalize for cell number. Aortic extracts and conditioned media were then mixed with sample buffer (1% SDS, 0.08 M Tris pH 6.8, 4% glycerol, and 0.006% bromophenol blue), and loaded onto a 10% gelatin polyacrylamide gel, and processed as described (Jacot T A, et al., Lab Invest. 1996; 75:791-79). For reverse zymography, samples were loaded onto a 15% gelatin polyacrylamide gel containing 0.5% porcine gelatin and 6 μg recombinant gelatinase A, and processed as described (Elliot S J, et al., J Am Soc Nephrol. 1999; 10: 62-68).

NF-κB [3] = assay: NF-κB luciferase reporter assay in proximal tubular cells; type: cell-based, mouse; details: PPS 50-200 μg/ml, TNFα 10 ng/ml
Experimental: To further determine the effect of PPS on NF-κB transcription activity, proximal tubular cells were transfected with a NF-κB reporter in the presence or absence of PPS (50-200 μg/ml) and TNFα (10 ng/ml). Some cells were also transfected with a cDNA expression vector containing constitutively active IκB, dominant negative IKK, or IKK. A β-galactosidase cDNA expression vector was co-transfected with the NF-κB reporter to serve as an internal control for transfection efficiency. Luciferase and β-galactosidase activity were measured using substrate assays. The same amount of DNA (1 μg/well of 24 well plates) was used for each transfection throughout the experiments.

[4] = 45 days HC-diet, PPS group before start of PPS
[5] = 75 days HC-diet, PPS in drinking water for the last 30 days
[6] = Baseline (3 months of age), PPS group before treatment

Substance: pentosan polysulfate [PPS]
- activity of post-heparin hepatic lipase, PPS- versus water-treated (hepatic lipase): no differences
- TNFα stimulated MCP-1 and RANTES protein production (MCP-1 and RANTES): decreased
- TNFα-stimulated ERK1/2 phosphorylation (ERK1/2): suppressed
- Free cholesterol [1, 4]: 1038.52 ± 128.80 mg/dL
- Phospholipids [1, 4]: 1241.09 ± 142.75 mg/dL
- Total cholesterol [1, 4]: 2133.28 ± 85.04 mg/dL
- Triglycerides [1, 4]: 331.28 ± 86.61 mg/dL
- Free cholesterol [1, 5]: 785.46 ± 93.22 mg/dL
- Phospholipids [1, 5]: 878.17 ± 107.98 mg/dL
- Total cholesterol [1, 5]: 1565.40 ± 212.07 mg/dL
- Triglycerides [1, 5]: 184.10 ± 30.19 mg/dL
- Free cholesterol [1, 6]: 282.92 ± 13.03 mg/dL
- Phospholipids [1, 6]: 574.59 ± 26.44 mg/dL
- Total cholesterol [1, 6]: 901.18 ± 50.30 mg/dL
- Triglycerides [1, 6]: 762.91 ± 72.13 mg/dL
- plasma lipid levels after 75 days of HC-diet versus 45 days ([1]; PPS-treated WHHL rabbits, a trend towards reduction was observed): not significantly different
- TNFα-induced increase in NF-κB DNA binding activity (NF-κB [2]): nearly completely blocked
- MMP-2 activity in aortic extracts (MMP-2): significantly increased
- TNFα stimulated NF-κB transcriptional activity (NF-κB [3]): dependently decreased
